# Measurements taken from patent publication US20240391965A1, “STAPLED ANTIMICROBIAL PEPTIDES (STAMPS) AND USES THEREOF” (Lytica Therapeutics, Inc., priority 2021, published 2024).
# Starred links: 1 amine or outer side, 2 acyl side, 3 side chain; linkers in the order of their positions; H or OH if unused. Positions of bridges follow the written chain, without caps; N, C: chain ends. Residues, ends and D or L forms follow the SMILES beside them. 2,2'Bipyridine(5,5'-diCH2) = c1cc(-c2ccc(C[*:2])cn2)ncc1C[*:1]; Naphthalene(2,6-diCH2) = c1cc2cc(C[*:2])ccc2cc1C[*:1]; mXylylene = c1cc(C[*:1])cc(C[*:2])c1; X1 = C(=CC[*:2])C[*:1]
# What was measured:
# [1] = test system: Acinetobacter baumannii (A. baumannii); format: cell-based; settings: microbroth dilution, 20-24 hours at 37° C.
# Method: (§1) Antimicrobial Activity Assay: The following microbroth dilution protocol was adapted from CLSI to determine the minimum inhibitory concentration (MIC) of StAMPs. Briefly, Mueller-Hinton broth (MHB) or cation-adjusted Mueller-Hinton broth (MHB II) was prepared and autoclaved. Then, a colony of bacterial cells was picked and grown overnight in broth at 37° C. and then diluted and allowed to grow again for 3-4 hours. Serial dilutions of peptide stocks in water (10 μl) were prepared using clear round-bottom polypropylene 96-well plates. Then 90 μl of bacteria in broth was added to give a final inoculum of 5×10^5 CFU/ml. The plates were then covered with porous tape to reduce evaporation and incubated for 20-24 hours at 37° C. The MIC was the minimum peptide concentration at which no visible bacterial growth was observed.
# [2] = test system: Escherichia coli (E. coli); format: cell-based; settings: microbroth dilution, 20-24 hours at 37° C.
# Method: as §1
# [3] = test system: Klebsiella pneumoniae (K. pneumoniae); format: cell-based; settings: microbroth dilution, 20-24 hours at 37° C.
# Method: as §1
# [4] = test system: Pseudomonas aeruginosa (P. aeruginosa); format: cell-based; settings: microbroth dilution, 20-24 hours at 37° C.
# Method: as §1
# [5] = test system: Staphylococcus aureus (S. aureus); format: cell-based; settings: microbroth dilution, 20-24 hours at 37° C.
# Method: as §1
# [6] = 90 minute cytotoxicity assay (LDH release), renal toxicity; format: cell-based; settings: 90 minutes of incubation, LDH release; read-out: Inhibitory Concentration at 50% Cytotoxicity (IC50) Human Renal Proximal Tubule Epithelial Cells (RPTEC)
# Procedure, shortened: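 Released lactate dehydrogenase, read as absorbance at 490 nm after 10 min with assay reagent, serves as read-out. Renal proximal tubule epithelial cells received peptide serial dilutions or vehicle for 90 min at 37° C after overnight plating.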
# [7] = 48 hours cytotoxicity assay (CellTiter-Glo), liver toxicity; format: cell-based, human; settings: 48 hours of incubation, CellTiter-Glo; read-out: Inhibitory Concentration at 50% Cytotoxicity (IC50) Human Liver Cells (HepG2)
# Procedure, shortened: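 Viability from CellTiter-Glo luminescence after StAMP dilution series or vehicle acted on HepG2 cells for 48 h at 37 °C. Cells were grown in EMEM plus 10% FBS and given 4 h to attach before dosing.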
SMILES,Minimum Inhibitory Concentration (MIC) A. baumannii [1] [µg/mL],Minimum Inhibitory Concentration (MIC) E. coli [2] [µg/mL],Minimum Inhibitory Concentration (MIC) K. pneumoniae [3] [µg/mL],Minimum Inhibitory Concentration (MIC) P. aeruginosa [4] [µg/mL],Minimum Inhibitory Concentration (MIC) S. aureus [5] [µg/mL],IC50 [6] [µg/mL],IC50 [7] [µg/mL]
CC[C@H](C)[C@H](NC(=O)CN)C(=O)N[C@H]1CSCC=CCSC[C@@H](C(=O)NCC(=O)N[C@@H](CCCCN)C(=O)N[C@@H](CCCCN)C(=O)N[C@H](C(=O)N[C@@H](CCCCN)C(=O)N[C@@H](CC(N)=O)C(=O)N[C@@H](CC(C)C)C(=O)N[C@@H](CC(C)C)C(=O)N[C@H](C(=O)N[C@@H](CO)C(=O)NCC(=O)N[C@@H](CC(C)C)C(=O)N[C@@H](CCCCN)C(=O)NCC(N)=O)[C@@H](C)CC)[C@@H](C)CC)NC(=O)[C@H](CC(C)C)NC(=O)[C@H](CCCCN)NC(=O)[C@H](CO)NC1=O [compound 1] (H-GICSKLCGKKIKNLLISGLKG-NH2; linker 3-7 via X1),8,8,64,32,>64,> 200,> 200
CC[C@H](C)[C@H](NC(=O)CN)C(=O)N[C@@H](Cc1ccccc1)C(=O)N[C@@H](CO)C(=O)N[C@@H](CCCCN)C(=O)N[C@@H](CC(C)C)C(=O)N[C@H]1CSCc2cccc(c2)CSC[C@@H](C(=O)N[C@@H](CCCCN)C(=O)N[C@@H](CC(N)=O)C(=O)N[C@@H](CC(C)C)C(=O)N[C@@H](CC(C)C)C(=O)N[C@H](C(=O)N[C@@H](CO)C(=O)NCC(=O)N[C@@H](CC(C)C)C(=O)N[C@@H](CCCCN)C(=O)NCC(N)=O)[C@@H](C)CC)NC(=O)[C@H](CCCCN)NC(=O)[C@H](CCCCN)NC(=O)CNC1=O [compound 2] (H-GIFSKLCGKKCKNLLISGLKG-NH2; linker 7-11 via mXylylene),4,2,16,8,>64,101,97
"CC[C@H](C)[C@H](NC(=O)CN)C(=O)N[C@@H](Cc1ccccc1)C(=O)N[C@@H](CO)C(=O)N[C@@H](CCCCN)C(=O)N[C@@H](CC(C)C)C(=O)N[C@@H](C)C(=O)NCC(=O)N[C@@H](CCCCN)C(=O)N[C@H]1CSCc2ccc(nc2)-c2ccc(cn2)CSC[C@@H](C(=O)NCC(=O)N[C@@H](CC(C)C)C(=O)N[C@@H](CCCCN)C(=O)NCC(N)=O)NC(=O)[C@H]([C@@H](C)CC)NC(=O)[C@H](CC(C)C)NC(=O)[C@H](CC(C)C)NC(=O)[C@H](CC(N)=O)NC(=O)[C@H](CCCCN)NC(=O)[C@H]([C@@H](C)CC)NC1=O [compound 72] (H-GIFSKLAGKCIKNLLICGLKG-NH2; linker 10-17 via 2,2'Bipyridine(5,5'-diCH2); N-terminus assumed)",4,4,8,32,4,19,–
"CC[C@H](C)[C@H](NC(=O)CN)C(=O)N[C@@H](Cc1ccccc1)C(=O)N[C@@H](CO)C(=O)N[C@@H](CCCCN)C(=O)N[C@@H](CC(C)C)C(=O)N[C@@H](C)C(=O)NCC(=O)N[C@@H](CCCCN)C(=O)N[C@H]1CSCc2ccc3cc(ccc3c2)CSC[C@@H](C(=O)NCC(=O)N[C@@H](CC(C)C)C(=O)N[C@@H](CCCCN)C(=O)NCC(N)=O)NC(=O)[C@H]([C@@H](C)CC)NC(=O)[C@H](CC(C)C)NC(=O)[C@H](CC(C)C)NC(=O)[C@H](CC(N)=O)NC(=O)[C@H](CCCCN)NC(=O)[C@H]([C@@H](C)CC)NC1=O [compound 73] (H-GIFSKLAGKCIKNLLICGLKG-NH2; linker 10-17 via Naphthalene(2,6-diCH2); N-terminus assumed)",4,8,8,64,4,9,–
"CC[C@H](C)[C@H](NC(=O)CN)C(=O)N[C@@H](Cc1ccccc1)C(=O)N[C@@H](CO)C(=O)N[C@@H](CCCCN)C(=O)N[C@@H](CC(C)C)C(=O)N[C@@H](C)C(=O)NCC(=O)N[C@@H](CCCCN)C(=O)N[C@@H](CCCCN)C(=O)N[C@H](C(=O)N[C@@H](CCCCN)C(=O)N[C@H]1CSCc2ccc(nc2)-c2ccc(cn2)CSC[C@@H](C(=O)NCC(N)=O)NC(=O)[C@H](CC(C)C)NC(=O)CNC(=O)[C@H](CO)NC(=O)[C@H]([C@@H](C)CC)NC(=O)[C@H](CC(C)C)NC(=O)[C@H](CC(C)C)NC1=O)[C@@H](C)CC [compound 81] (H-GIFSKLAGKKIKCLLISGLCG-NH2; linker 13-20 via 2,2'Bipyridine(5,5'-diCH2); N-terminus assumed)",4,4,8,32,>64,–,57
"CC[C@H](C)[C@H](NC(=O)CN)C(=O)N[C@@H](Cc1ccccc1)C(=O)N[C@@H](CO)C(=O)N[C@@H](CCCCN)C(=O)N[C@@H](CC(C)C)C(=O)N[C@@H](C)C(=O)NCC(=O)N[C@@H](CCCCN)C(=O)N[C@@H](CCCCN)C(=O)N[C@H](C(=O)N[C@@H](CCCCN)C(=O)N[C@H]1CSCc2ccc3cc(ccc3c2)CSC[C@@H](C(=O)NCC(N)=O)NC(=O)[C@H](CC(C)C)NC(=O)CNC(=O)[C@H](CO)NC(=O)[C@H]([C@@H](C)CC)NC(=O)[C@H](CC(C)C)NC(=O)[C@H](CC(C)C)NC1=O)[C@@H](C)CC [compound 82] (H-GIFSKLAGKKIKCLLISGLCG-NH2; linker 13-20 via Naphthalene(2,6-diCH2); N-terminus assumed)",4,4,8,32,>64,–,23
"CC[C@H](C)[C@H](NC(=O)CN)C(=O)N[C@@H](Cc1ccccc1)C(=O)N[C@@H](CO)C(=O)N[C@@H](CCCCN)C(=O)N[C@@H](CC(C)C)C(=O)N[C@@H](C)C(=O)NCC(=O)N[C@@H](CCCCN)C(=O)N[C@@H](CCCCN)C(=O)N[C@H](C(=O)N[C@@H](CCCCN)C(=O)N[C@@H](CC(N)=O)C(=O)N[C@H]1CSCc2ccc(nc2)-c2ccc(cn2)CSC[C@@H](C(N)=O)NC(=O)[C@H](CCCCN)NC(=O)[C@H](CC(C)C)NC(=O)CNC(=O)[C@H](CO)NC(=O)[C@H]([C@@H](C)CC)NC(=O)[C@H](CC(C)C)NC1=O)[C@@H](C)CC [compound 84] (H-GIFSKLAGKKIKNCLISGLKC-NH2; linker 14-21 via 2,2'Bipyridine(5,5'-diCH2); N-terminus assumed)",8,4,16,32,>64,–,105
"CC[C@H](C)[C@H](NC(=O)CN)C(=O)N[C@@H](Cc1ccccc1)C(=O)N[C@@H](CO)C(=O)N[C@@H](CCCCN)C(=O)N[C@@H](CC(C)C)C(=O)N[C@@H](C)C(=O)NCC(=O)N[C@@H](CCCCN)C(=O)N[C@@H](CCCCN)C(=O)N[C@H](C(=O)N[C@@H](CCCCN)C(=O)N[C@@H](CC(N)=O)C(=O)N[C@H]1CSCc2ccc3cc(ccc3c2)CSC[C@@H](C(N)=O)NC(=O)[C@H](CCCCN)NC(=O)[C@H](CC(C)C)NC(=O)CNC(=O)[C@H](CO)NC(=O)[C@H]([C@@H](C)CC)NC(=O)[C@H](CC(C)C)NC1=O)[C@@H](C)CC [compound 85] (H-GIFSKLAGKKIKNCLISGLKC-NH2; linker 14-21 via Naphthalene(2,6-diCH2); N-terminus assumed)",4,4,32,16,64,–,87
CC[C@H](C)[C@H](NC(=O)CN)C(=O)N[C@@H](Cc1ccccc1)C(=O)N[C@@H](CO)C(=O)N[C@@H](CCCCN)C(=O)N[C@@H](CC(C)C)C(=O)N[C@H]1CSCC=CCSC[C@@H](C(=O)N[C@@H](CCCCN)C(=O)N[C@@H](CC(N)=O)C(=O)N[C@@H](CC(C)C)C(=O)N[C@@H](CC(C)C)C(=O)N[C@H](C(=O)N[C@@H](CO)C(=O)NCC(=O)N[C@@H](CC(C)C)C(=O)N[C@@H](CCCCN)C(=O)NCC(=O)N[C@@H](C)C(=O)N[C@@H](CCCCN)C(=O)O)[C@@H](C)CC)NC(=O)[C@H](CCCCN)NC(=O)[C@H](CCCCN)NC(=O)CNC1=O [compound 100] (H-GIFSKLCGKKCKNLLISGLKGAK-OH; linker 7-11 via X1),16,32,>64,>64,>64,–,> 200
